Data on four compounds can be found in patent US5420276A, “Analogs of oxetanyl purines and pyrimidines” (Abbott Laboratories, priority 1993, dated 1995).

Data set [1] relates to Herpes simplex type 1 (HSV-1) strain E-377. The data set is described as follows: CPE-inhibition assay, herpes simplex type 1 strain E-377 in Vero cells. The format is cell-based, herpes simplex virus type 1. As to the method: (§1) The challenge viruses were propagated and assayed in cells that were pregrown as monolayer cultures in plastic tissue culture flasks and 96-well plates, using cell culture media appropriate for the host cell cultures. The following viruses and host cell cultures were employed:
(§2) green monkey kidney (Vero)
(§3) On the day of use, a weighed sample of each compound to be evaluated was dissolved and diluted in serial 10^0.5 dilutions in the culture medium appropriate for each virus-host cell system.
(§4) Mammalian cells were pregrown as monolayers in wells of COSTAR 96-well tissue culture plates using suitable cell culture media. Stock viruses were pretitered according to the method of Reed and Muench (Amer. J. Hyg. 27:493-497, 1938) and diluted in cell culture medium to yield 32 CCID50 (cell culture infectious dose, 50%) units per 0.1 ml. Antiviral assays were designed to test seven concentrations of each compound, from cytotoxic to noncytotoxic levels, in triplicate against each of the challenge viruses in microtiter plate wells containing suitable cell monolayers. To each of the replicate cell cultures were added 0.1 ml of the test drug solution and 0.1 ml of virus suspension. Cell controls containing medium alone, virus controls containing medium and virus, and drug cytotoxicity controls containing medium and each drug concentration were run simultaneously with the test samples assayed in each experiment. […] The cell monolayers were examined microscopically for virus-induced CPE and for drug cytotoxicity.
(§5) Antiviral activity was determined by calculating the degree of inhibition of virus-induced CPE in drug-treated, virus-infected cell cultures by means of a virus rating (VR). The VR is a standard weighted measurement of antiviral activity taking into account both the degree of CPE inhibition and drug cytotoxicity, and is determined by a modification of the method of Ehrlich et al. (Ann. N.Y. Acad. Sci. 130: 5-16, 1965) as described below. CPE was graded for each individual culture in each microtiter plate well according to the following scale:
(§6) 4=100% of the cells affected by virus;
(§7) 3=75% of the cells affected by virus;
(§8) 2=50% of the cells affected by virus;
(§9) 1=25% of the cells affected by virus;
(§10) 0=No CPE; normal cell monolayer.
(§11) The VR was calculated as 0.1 of the sum of the numerical differences between the recorded CPE grade of each test well and that of the corresponding virus control in the culture plate. Numerical differences between the scores of test wells containing a drug concentration which was partially cytotoxic (p) and their corresponding virus controls were halved.
(§12) The minimum inhibitory drug concentration which reduced the cytopathogenic effect (CPE) by 50% (MIC50) was calculated by using a regression analysis program for semilog curve fitting. A therapeutic index (TI) for each active compound for each susceptible virus was determined by dividing the minimum cytotoxic concentration of the test compound by the MIC50.

The nature of data set [2]: MTT test compound cytotoxicity in human foreskin fibroblasts. The format is cell-based. Conditions: hff cells, read-out: MTT assay (Percent of control). As to the method:
(§13) For the plaque reduction assay, sixth to twelfth passage human foreskin fibroblasts were seeded in wells of 12-well tissue culture plates and incubated at 37° C. in a humidified atmosphere containing 2% CO2 in air. Subconfluent HFF were rinsed with MEM and exposed to 0.5 ml/well of a suspension of VZV diluted in MEM+2% FBS for 2 hours at 37° C. Following the virus adsorption period, the inocula were removed and the infected cell layers were rinsed with MEM. Triplicate VZV-infected cell culture wells were treated with 1.0 ml of each concentration of test compound (in MEM+2% FBS). Six untreated virus-infected cell cultures and triplicate untreated uninfected cell cultures were fed with 1.0 ml of MEM+2% FBS to serve as controls. Wells containing uninfected HFF were treated with each concentration of test compound to monitor the test compound cytotoxicity. The 12-well plates were incubated at 37° C. in the CO2 incubator. At 48 hours post-virus infection (p.i.), fluids in all plate wells were replaced with fresh test compound and/or culture medium.
The test compound cytotoxicity control cultures were examined microscopically for gross morphologic changes, then treated with MTT and 30% SDS. The blue color of the MTT formazan was measured spectrophotometrically at 570 nm. Test compound cytotoxicity was determined by comparing the absorbance (O.D.) of each test compound control with the mean O.D. of the cell control cultures and expressed as percent of control.

Data set [3] concerns Varicella-Zoster Virus (VZV) clinical isolate DM625. The data set is described as follows: VZV plaque reduction assay. The format is cell-based. Conditions: Human alphaherpesvirus 3, 144 h, VZV in HFF; for EC50: minimum concentration required to inhibit plaque formation by 50%, read-out: MIC50. As to the method: The compounds of the invention were evaluated for selective activity against varicella zoster virus (VCV) utilizing a plaque reduction assay procedure. The challenge virus was a clinical isolate designated DM625, obtained from Dr. Richard Whitley of the University of Alabama Hospitals, Birmingham, Ala. The virus had been passaged and titrated in cultures of human foreskin fibroblasts (HFF).
as §13
Six days p.i., the VZV plaques were counted (unstained, low magnification).The effect of each concentration of test compound on plaque formation was determined by comparing the mean number of plaques in the replicate test compound-treated cultures with the mean plaque counts of the untreated virus control cultures.
The MIC50 value is the minimum concentration of test Compound required to inhibit plaque formation by 50%.

In data set [4] the test system is Herpes simplex type 2 (HSV-2) strain MS. Put plainly: CPE-inhibition assay, herpes simplex type 2 strain MS in Vero cells. The format is cell-based, herpes simplex virus type 2. Here is the method: as §1, §2, §3, §4, §5, §6, §7, §8, §9, §10, §11, §12
The nature of data set [5]: Drug cytotoxicity in Vero cells (microscopic, CPE-inhibition assay). The format is cell-based. The note with it: african green monkey, minimum drug concentration causing any cytotoxicity, read-out: MTC. As to the method: as §4, §5, §12
The nature of another data set: in vitro. Conditions: monkey, vero cells. The format is cell-based, African green monkey. As to the method: (§14) Vero cell monolayers were harvested by trypsinization. The number of viable cells per ml. was determined by staining an aliquot with trypan blue and counting in a hemocytometer. Cell densities were adjusted in growth medium to contain 4×10^5 cells/mi. 96-well sterile tissue culture plates were seeded with 100 μl/well of the adjusted cell suspensions, i.e., 4×10^4 cells/well. Seeded plates were incubated overnight at 37° C. with CO2.
(§15) After overnight incubation, monolayers were approximately confluent. The growth medium was removed and the monolayers in each cell were infected with 100 μl of virus diluted in maintenance medium to produce approximately 90% cytopathogenic effect (CPE) after 2 to 3 days incubation. The virus was allowed to adsorb for 1 hour at 37° C. with 4 to 6% CO2. Controls for cell growth were overlayed with virus-free maintenance medium. The maintenance medium containing residual virus was removed.
(§16) The test compounds were dissolved and/or diluted in maintenance medium to the concentration desired for testing and were added to the wells of the plate. Aliquots (100 μl ) of each concentration were added to wells in replicate (duplicate or triplicate). Controls for virus activity were overlayed with drug-free maintenance medium. Replicate wells containing only maintenance medium served as controls for background absorbance levels.
After incubation, the medium was removed from all the wells. 100 μl of neutral red solution was added to each well and the plate was incubated at 37° C. without CO2 for 2 hours. After the 2 hour incubation, the excess neutral red solution was removed. The plates were washed with 100 μl/well of PBS, pH 7.2 and then the PBS was removed.
The neutral red stain taken up by the viable cells was extracted by adding 100 μl/well of acidified methanol, pH 1.0. (The acidified methanol fixed the cells to the well). The plate was allowed to stand at room temperature for at least 15 minutes to allow for maximum extraction. The amount of neutral red stain extracted into the methanol was quantified by determining the absorbance at a wavelength of 540 nm. […]

Data set [6] deals with Herpes Simplex Virus Type 1. Put plainly: Neutral red dye uptake assay for antiviral activity, HSV-1 in Vero cells. The format is cell-based. The note with it: Human alphaherpesvirus 1, HSV-1, Vero, concentration at which 50% CPE would be observed, read-out: MIC50. As to the method: as §14, §15, §16
After incubation, the medium was removed from all the wells. 100 μl of neutral red solution was added to each well and the plate was incubated at 37° C. without CO2 for 2 hours. After the 2 hour incubation, the excess neutral red solution was removed. […]
The neutral red stain taken up by the viable cells was extracted by adding 100 μl/well of acidified methanol, pH 1.0. […] The amount of neutral red stain extracted into the methanol was quantified by determining the absorbance at a wavelength of 540 nm.
The percent CPE in virus controls was determined by the following formula: [formula]
The percent CPE in cells infected with virus and treated with the test compound was determined by the following formula: [formula] […]

The next data set concerns HSV-1 (E-377). The data set is described as follows: CPE inhibition assay (MTT), HSV-1 (E-377) in Vero cells. In kind it is cell-based, herpes simplex virus type 1. Conditions: Human alphaherpesvirus 1, inhibited CPE by 50%. As to the method: Vero cells were pregrown as monolayers in wells of COSTAR 96-well tissue culture plates using suitable cell culture media. Stock viruses were pretitered according to the method of Reed and Muench (Amer. J. Hyg. 27 493 (1938)) and diluted in cell culture medium to yield 32 CCID50 (cell culture infectious dose, 50%) units per 0.1 mL. Antiviral assays were designed to test six concentrations of each compound, from cytotoxic to noncytotoxic levels, in triplicate against each of the challenge viruses in microtiter plate wells containing cell monolayers. To each of the replicate cell cultures were added 0.1 mL of the test-compound solution and 0.1 mL of virus suspension. Two compounds were evaluated per plate. The following controls were included:
(1) Cell controls containing cells+medium;
(2) Untreated, virus-infected cell controls;
(3) Test-compound cytotoxicity controls containing uninfected, test-compound treated cells;
(4) Test-compound color controls-test-compound+medium (no cells); and
(5) Reagent (experiment medium) controls-medium only (no cells).
The covered plates were incubated at 37° C. in a humidified atmosphere containing 2% CO2. When cytopathogenic effect (CPE) in untreated virus control wells reached 100%, 20 μL of 3-(4,5-dimethyl-thiazol-2-yl)-2,5-diphenyl tetrazolium bromide (MTT) (dissolved in PBS at 5 mg/mL) was pipetted into each of the plate wells. The plates were incubated at 37° C. for six hours; then 40 μL of 30% SDS (in 0.02N HCl) was added to each well. After overnight incubation at 37° C., the blue color or the MTT formazan was measured spectrophotometrically at 570 nm. The optical density (OD) value of each culture is a function of the amount of formazan produced which is proportional to the number of viable cells. A computer program was utilized to calculate the percent (CPE) reciprocal of % CPE reduction) of the virus-infected wells and % cell viability of the uninfected test-compound control wells.
The IC50 value is the minimum test-compound concentration (μg/mL) that inhibited CPE by 50% calculated by using a regression analysis program for semilog curve fitting. The TC25 value is the minimum test-compound concentration (μg/mL) that reduced cell viability by 25%.

Molecules are shown by their SMILES. ≈ marks a conversion by molar mass, not a printed value. Read-outs that look alike come from different tables or passages of the source.

As to `Cc1cn([C@@H]2O[C@H](CO)[C@H]2CO)c(=O)[nH]c1=O` [Example 21, 1-([2'R, 3'R, 4'S]-3',4'-Bis(hydroxymethyl)-2'-oxetanyl)5-methyluracil], the “VR (Virus Rating)” value in data set [1] (HSV-1 (E-377)) was found to be 5.9. Also, the IC50 in data set [1] (Human alphaherpesvirus 1, HSV-1 (E-377), minimum drug concentration that inhibited the CPE by 50%, read-out: ID50 (the source's name)) is 0.2 µg/mL (≈ 0.826 µM). Moreover, in data set [2], the viability at 0.1 µM was found to be 93%, the viability at 0.32 µM was 84%, the viability at 1 µM was 87% and the viability at 3.2 µM was determined as 87%. Besides, in data set [3], the inhibition at 0.032 µM was 16%, the inhibition at 0.1 µM was 55%, the inhibition at 0.32 µM is 97% and the inhibition at 1 µM worked out at 100%. In data set [3], the inhibition at 3.2 µM was found to be 100% and the EC50 is 0.09 µg/mL (≈ 0.372 µM). In addition, the “VR (Virus Rating)” value in data set [4] (HSV-2 (MS)) amounted to 2.9. Also, the IC50 in data set [4] (Human alphaherpesvirus 2, HSV-2 (MS), minimum drug concentration that inhibited the CPE by 50%, read-out: ID50 (the source's name)) stood at 44.3 µg/mL (≈ 183 µM). For the same compound, in data set [5] (HSV-1 (E-377)), the MCC came to 320 µg/mL. Also, the MCC in data set [5] (HSV-2 (MS)) is over 320 µg/mL.

On to `CCc1cn([C@@H]2O[C@H](CO)[C@H]2CO)c(=O)[nH]c1=O` [Example 48, 1-([2'R, 3'R, 4'S]-3',4'-Bis(hydroxymethyl)-2'-oxetanyl)-5-ethyluracil], for which the midpoint of cytotoxicity in the data set “in vitro”, the CC50, lay at 350 µg/mL (≈ 1370 µM). Further, the EC50 in data set [6] stood at 0.06 µg/mL (≈ 0.234 µM).

For `O=c1[nH]c(=O)n([C@@H]2O[C@H](CO)[C@H]2CO)cc1C=CCl` [Example 50, 1-([2'R, 3'R, 4'S]-3',4'-Bis(hydroxymethyl)-2'-oxetanyl)-5-(2-chloro-1-vinyl)uracil], in data set [2], the viability at 0.1 µM was 100%, the viability at 0.32 µM came out at 100% and the viability at 1 µM was 100%. The inhibition at 0.0032 µM in data set [3] (0.0032 μM) is 7%. In data set [3] (0.01 μM), this compound displayed an inhibition at 0.01 µM of 45%. In data set [3], the inhibition at 0.032 µM turned out to be 90%, 0.1 µM produced 99% inhibition, the inhibition at 0.32 µM amounted to 98% and the inhibition at 1 µM worked out at 99%. Besides, the EC50 in data set [3] was found to be 0.004 µg/mL (≈ 0.0139 µM). Also, in the data set on HSV-1 (E-377), the IC50 came to 0.74 µg/mL (≈ 2.56 µM).

As for `CC#Cc1cn([C@@H]2O[C@H](CO)[C@H]2CO)c(=O)[nH]c1=O` [Example 68, 1-([2'R, 3'R, 4'S]-3',4'-Bis(hydroxymethyl)-2'-oxetanyl)-5-propynyluracil], in data set [2] (0.032 μM), the viability at 0.032 µM stood at 100%. Moreover, in data set [2], the viability at 0.1 µM amounted to 100%, the viability at 0.32 µM came out at 100%, the viability at 1 µM amounted to 98% and the viability at 3.2 µM came to 100%. In data set [3], this compound yielded an inhibition at 0.032 µM of 3%, an inhibition at 0.1 µM of 38%, an inhibition at 0.32 µM of 92% and an inhibition at 1 µM of 99%. Further, in data set [3], the inhibition at 3.2 µM stood at 100% and the EC50 is 0.045 µg/mL (≈ 0.169 µM).
